Laboratory results from patent US9952206B2, “Immunoassay for detecting kratom, its constituents and their use” (Randox Laboratories Limited, priority 2013, dated 2018).
Converted amounts (≈) assume the structure as drawn.

Tested on: antibodies of the invention (antisera generated in response to the immunogen of Example 4)
Assay: Competitive chemiluminescent biochip immunoassay, standard curve generation using generated antiserum
Conditions: for IC50 (standard concentration which produces 50% B/B0): biochip-immobilised IgG fraction of antiserum, hapten-HRP conjugate of Example 5; for % CR (percentage cross-reactivity based on 100% specificity to mitragynine): relative to mitragynine = 100%

SMILES	IC50 (standard concentration which produces 50% B/B0) [ng/mL]	B/Bo (calibrator 0.313 ng/ml) [%]	B/Bo (calibrator 0.625 ng/ml) [%]	B/Bo (calibrator 1.250 ng/ml) [%]	B/Bo (calibrator 2.500 ng/ml) [%]	B/Bo (calibrator 5.000 ng/ml) [%]	B/Bo (calibrator 10.000 ng/ml) [%]	B/Bo (calibrator 20.000 ng/ml) [%]	% CR (percentage cross-reactivity based on 100% specificity to mitragynine) [%]
CCC1CN2CCc3c([nH]c4cccc(O)c34)C2CC1C(=COC)C(=O)OC [8-Desmethylmitragynine, (E)-2-[(2S,3S,12bS)-3-ethyl-8-hydroxy-1,2,3,4,6,7,12,12b-octahydroindolo[2,3-a]quinozilizin-2-yl]-3-methoxy propenoic acid methyl ester]	1.532 (≈ 3.98 nM)	74	63	54	42	29	18	13	77.87
CC[C@@H]1CN2CCc3c([nH]c4cccc(OC)c34)[C@H]2C[C@@H]1/C(=C\OC)C(=O)OC (stereo in doubt) [Mitragynine, (E)-2-[(2S,3S,12bS)-3-ethyl-8-methoxy-1,2,3,4,6,7,12,12b-octahydroindolo[2,3-a]quinozilizin-2-yl]-3-methoxy propenoic acid methyl ester]	1.193 (≈ 2.99 nM)	75	63	49	37	25	17	11	100.00
